# Results from PubChem BioAssay AID720590 (Broad Institute, 2013).
# Active and inactive are the calls of the source. How the calls were made is not given here.
# Molecular target: Mycobacterium tuberculosis BioA (adenosylmethionine-8-amino-7-oxononanoate aminotransferase)
# Test: inhibition of M. tuberculosis BioA aminotransferase – biochemical, plate reader, dry powder samples, dose response (AID 720590)
# Details: M. tuberculosis BioA enzyme assay
row,Compound,AC50
1,CCc1ccc(C(=O)N2CCN(Cc3ccc4c(c3)OCO4)CC2)cc1,> 20 µM (inactive)
2,O=C(O)CC/C(=C\c1ccc([N+](=O)[O-])cc1)c1nc2ccccc2s1,0.988 µM
3,COc1cccc(NC(=O)CCC2CCN(C(=O)c3ccc(C(C)=O)s3)CC2)c1,0.225 µM
4,O=C(Nc1cccnc1)c1cnn2c(C(F)F)cc(C3CC3)nc12,0.252 µM
5,O=C(c1ccc2c(c1)OCO2)N1CCN(c2ccc(Cl)cc2)CC1,4.32 µM
6,CC(=O)c1ccc(N2CCN(Cc3ccc4c(c3)OCO4)CC2)cc1,0.133 µM
7,COc1cccc(C(=O)N2CCN(c3ccc(C(C)=O)cc3)CC2)c1,0.602 µM
8,CC(=O)c1ccc(N2CCN(C(=O)c3ccc(C)cc3)CC2)cc1,0.746 µM
9,CC(C)(C)c1ccc(C(=O)N2CCN(c3ccc4c(c3)OCO4)CC2)cc1,> 20 µM (inactive)
10,Cc1ccc(-c2cc(C(F)(F)F)n3nc(C(=O)Nc4cccnc4)cc3n2)cc1,< 0.08 µM
11,CCN(CC)c1ccc2cc(C(=O)c3cccs3)c(=O)oc2c1,< 0.08 µM
12,COc1cc(/C=C/C(=O)Nc2cccnc2)cc(OC)c1OC,0.107 µM
13,O=C(Nc1ccc(F)cc1)N1CCN(c2ccccc2)CC1,6.63 µM
14,O=C(Nc1cccc(F)c1)N1CCN(c2ccccc2)CC1,4.33 µM
15,Cc1cc(C)n2nc(C(=O)Nc3cccnc3)cc2n1,0.15 µM
16,Cc1ccc(/C=C(\CCC(=O)O)c2nc3ccccc3s2)cc1,7.24 µM
17,O=C(COc1ccc2ccc(=O)oc2c1)N1CCN(c2ccc(F)cc2)CC1,0.162 µM
18,CCc1ccc(N2CCN(C(=O)c3ccc4c(c3)OCO4)CC2)cc1,> 20 µM (inactive)
19,COc1ccc(N2CCN(C(=O)c3ccc4c(c3)OCO4)CC2)cc1,5.32 µM
20,O=C(O)CC/C(=C\c1ccccc1[N+](=O)[O-])c1nc2ccccc2s1,> 20 µM (inactive)
21,O=C(Nc1ccc2snnc2c1)N1CCN(c2ccccc2)CC1,< 0.08 µM
22,O=C(c1ccc2c(c1)OCO2)N1CCN(c2ccccc2)CC1,> 20 µM (inactive)
23,Cc1ccc(/C=C(\CCCC(=O)O)c2nc3ccccc3s2)cc1[N+](=O)[O-],0.953 µM

row,Compound,AC50
1,O=C(Nc1ccc2snnc2c1)N1CCCCC1,1.46 µM
2,CC(=O)c1ccc(N2CCN(C(=O)c3ccc(F)cc3)CC2)cc1,0.3 µM
3,O=C(Nc1cccnc1)c1cc2nc(-c3cccs3)cc(C(F)(F)F)n2n1,0.0871 µM
4,Cc1ccccc1/C=C(\CCC(=O)O)c1nc2ccccc2s1,7.62 µM
5,O=C(c1ccc2c(c1)OCO2)N1CCN(Cc2ccccc2)CC1,> 20 µM (inactive)
6,CC(=O)c1ccc(N2CCN(C(=O)c3cccc(Cl)c3)CC2)cc1,0.0955 µM
7,CC(=O)c1ccc(N2CCN(C(=O)c3cccnc3)CC2)cc1,2.04 µM
8,COC(=O)c1c(C(=O)OC)c(-c2cccc(F)c2)n2c1CS(=O)C2 (stereo unspecified),0.115 µM
9,CC(=O)c1ccc(N2CCN(C(=O)c3cccc(F)c3)CC2)cc1,0.731 µM
10,COc1ccc(-c2cc(C(F)(F)F)n3nc(C(=O)Nc4cccnc4)cc3n2)cc1,< 0.08 µM
11,O=C(Nc1ccc(Cl)c(-c2nc3ccccc3[nH]2)c1)c1cccnc1,0.181 µM
12,O=C(Nc1ccc2snnc2c1)N1CCOCC1,0.896 µM
13,COc1cccc(NC(=O)N2CCN(c3ccccc3)CC2)c1,> 20 µM (inactive)
14,CC(=O)c1ccc(N2CCN(C(=O)c3ccccc3)CC2)cc1,0.161 µM
15,Cc1ccc(/C=C(\CCC(=O)O)c2nc3ccccc3s2)cc1[N+](=O)[O-],< 0.08 µM
16,CC(=O)c1ccc(N2CCN(C(=O)c3ccc4c(c3)OCCO4)CC2)cc1,2.83 µM
17,CCOC(=O)N1CCN(C(=O)Nc2ccc3snnc3c2)CC1,0.424 µM
18,CC(=O)c1ccc(N2CCN(C(=O)c3ccc(Br)cc3)CC2)c(F)c1,< 0.08 µM
19,COc1ccc(C(=O)N2CCN(c3ccc(C(C)=O)cc3)CC2)cc1,1.28 µM
20,Cc1cc(C)n2nc(C(=O)Nc3cccnc3)nc2n1,0.673 µM
21,CC(=O)c1ccc(N2CCN(C(=O)c3ccc4ncsc4c3)CC2)cc1,0.246 µM
22,CC(=O)c1ccc(N2CCN(C(=O)c3ccc(Cl)cc3)CC2)cc1,0.751 µM
23,CC(=O)c1ccc(N2CCN(C(=O)c3ccc4c(c3)OCO4)CC2)cc1,< 0.08 µM

# Same assay, conditions: M. tuberculosis BioA enzyme assay, at 10 µM (top of the series)
row,Compound,"activity change, negative = inhibition"
1,Cc1ccc(NC(=O)N2CCN(c3ccccc3)CC2)cc1,inactive
2,O=C(Nc1ccc2[nH]ccc2c1)N1CCN(c2ccccc2)CC1,inactive
3,O=C(Nc1cccnc1)c1cnn2c(C(F)(F)F)cc(-c3ccccc3)nc12,inactive
4,O=C(c1ccc2c(c1)OCO2)N1CCN(c2ccc(F)cc2)CC1,inactive
5,Cc1nc2ccc(NC(=O)N3CCN(c4ccccc4)CC3)cc2s1,inactive
6,O=C(Nc1ccccc1)N1CCN(c2ccccc2)CC1,inactive
7,O=C(Nc1ccc(Cl)cc1)c1cc2nc(C3CC3)cc(C(F)(F)F)n2n1,inactive
8,COc1ccc(NC(=O)N2CCN(c3ccccc3)CC2)cc1,inactive
9,O=C(Nc1ccncc1)c1cc2nc(C3CC3)cc(C(F)F)n2n1,inactive
10,Cc1nc2cc(NC(=O)N3CCN(c4ccccc4)CC3)ccc2o1,inactive
